Here are results for one substance from patent US20170035791A1, “COMBINATION OF BETA-GLUCOSYLCERAMIDE AND POLYETHOXYLATED CASTOR OIL AND OTHER ADJUVANTS FOR CONTROLING BLOOD SUGAR LEVELS, IMMUNOPROTECTION AND HEPATOPROTECTION” (NATURAL SHIELD ISRAEL 2016 LTD, priority 2014, published 2017).

In one experiment the test system is ConA mouse model. Nature of the experiment: Concanavalin A (ConA) induced immune-mediated hepatitis, serum ALT and AST. The format is in vivo, mice. The following applies: ConA 0.5 mg/mouse i.v., oral GC 3 mg/mouse or C:E 30 μl/mouse, 15 hours following ConA. As for the experimental part: Concanavalin A solution (ConA; purchased from MP Biomedicals, USA) consisted of 2 mg ConA in 1 ml distilled water. Mice were intravenously (IV) injected with 250 μl ConA solution (0.5 mg/mouse).
(§1) Mice were tested for serum alanine transaminase (ALT) and aspartate aminotransferase (AST) at 24 hours after acetaminophen administration. Serum AST and ALT levels were measured by an automatic analyzer.
The inventors next examined the effect of the combination of GC and C:E on the immune-mediated hepatitis in Con A mouse model. Details on the relevant experimental procedures are given above in experimental procedures. In brief, mice were injected i.v. with 250 μl ConA (0.5 mg/mouse) for 15 hrs prior to oral treatments, including C:E: ethanol 1:1 solution administered (30 μl/mouse); GC with CE as 100 mg GC dissolved in 1 ml C:E or GC in ethanol as 100 mg GC dissolved in 1 ml ethanol abs. administered (3 mg/mouse); control as PBS administered (30 μl/mouse).

For a further experiment, the system named is human subject. Briefly: Blood sugar levels in a human subject after drinking Coca Cola with GC or GC with CE add-ons. The format is in vivo. The following applies: 500 ml Coca Cola with 28 mg GC add-on. As for the experimental part:
A human subject healthy person was monitored for blood sugar levels for 2 hours every 15 minutes following an overnight fast and drinking of 500 ml of Coca Cola alone or Coca Cola with GC or GC with CE add-ons.

The subject of experiment [1] is alcohol induced liver damage mouse model. Nature of the experiment: Alcohol induced liver damage in a mouse model, ALT. The format is in vivo. The following applies: mice, alcohol 6 gr/kg by gavage with 6 microgram GC; after 16 hours; EtOH alone 414, naive 28. As for the experimental part:
The inventors further characterized the ameliorating effect of the GC—the alcohol induced liver damage in a mouse model. Table 9 summarizes the relevant experimental groups, including group A of naïve mice; group B receiving alcohol 6 gr/kg-300 μl of 70% Ethanol per mouse/gavage i.e. 3500 μl EtOH Abs.+1500 μl sterile water (Ethanol is equal to 6 gr/kg for 27.5 gr mouse body weight).; Group C receiving 6 microgram of GC with alcohol. Mice were sacrificed after 16 hours and the level of liver enzymes was evaluated.

The test system of experiment [2] is APAP-mediated liver toxicity in male adult mice. Briefly: Acetaminophen (APAP) mediated liver toxicity, serum ALT. The format is in vivo. The following applies: APAP 4.6 mg/mouse; oral treatment 1 hour after APAP, GC 3 mg/mouse or C:E 30 μl/mouse; 24 hours after APAP; control 15612. As for the experimental part: Acetaminophen powder (APAP; was purchased from Sigma, cat. # A7085), was dissolved in a mixture of 30% Cremophor EL (Sigma, Rehovot, Israel) and ethanol (1:1) in DDW (Di distilled water).
as §1
APAP-mediated liver toxicity was induced in male adult mice fasted overnight and 2 hours after APAP administration. APAP was i.v. injected at the concentration of 4.6 mg/mouse. Various treatments, GC or C:E alone, GC with C:E and controls, were administered 1 hour after APAP injection. For various oral treatments, C:E: Cremophor:ethanol 1:1 solution was administered (30 μl/mouse); GC with CE: 100 mg GC dissolved in 1 ml C:E or GC in ethanol: 100 mg GC dissolved in 1 ml Ethanol Abs. were administered (3 mg/mouse); Control:PBS administered (30 μl/mouse).
All mice were sacrificed 24 hours after APAP administration and serum levels of ALT were measured.

In experiment [3] the test system is C57B1/6 mice. Briefly: Glucose tolerance test (GTT) in mice after Coca Cola with GC in C:E, GC in ethanol or C:E (Table 5, FIG. 5). The format is in vivo. Particulars: Coca Cola + add-on. The procedure:
(§2) Male C57B1/6 mice (11-12 weeks old) were obtained from Harlan Laboratories (Jerusalem, Israel) and maintained in the Animal Core of the Hadassah-Hebrew University Medical School. All mice were administered standard laboratory chow and water ad libitum and kept in a 12-hour light/dark cycle. SSBs (Coca Cola or orange flavored soda) including additives GC and/or CE were orally administered in a volume of 300-350 μl per mouse by gavage. The animal experiments were carried out according to the guidelines of the Hebrew University-Hadassah Institutional Committee for Care and Use of Laboratory Animals and with the committee's approval.
Beta-glucosylceramide (GC) solution consisted of 60 mg GC (purchased from Avanti Polar Lipids; Alabaster, Ala., USA) dissolved in 1 ml mixture of 30% Cremophor EL (Sigma, Rehovot, Israel) and ethanol (1:1; CE) or ethanol alone. These served basis for preparation of SSBs containing GC and/or CE, including 1800 μl Coca Cola or other SSB and 400 μl GC in CE or ethanol or CE alone.
Mice undergo a glucose tolerance test on day 60. Glucose is administered orally (1 g per kg). Serum glucose measurements is performed on tail-vein blood every fifteen minutes for three hours. Glucose levels are measured by a standard glucometer. […]

Experiment [4] concerns C57B1/6 mice. Nature of the experiment: Blood sugar AUC in mice after oral Coca Cola with GC and/or CE add-on. The format is in vivo. Particulars: Coca Cola + add-on 350 μl/mouse by gavage, glucose at 0, 15, 30 min, Coca Cola alone 4785 ± 208. As for the experimental part:
as §2, with “approval. […]” for “approval.”
To evaluate the ability of GC to control blood sugar levels during consumption of a high glucose beverage, the inventors examined the effect of GC alone and of GC with CE combination, on mice consuming various high sugar soft drinks. […] Glucose levels were measured at 0, 15, and 30 min after Coca Cola administration.
To further evaluate the effect of C:E on blood sugar levels following consumption of Coca Cola, the inventors performed the experiment in Table 2, including group A receiving orally Coca Cola +C:E (350 μl/mouse by gavage) and group B receiving Coca Cola only (300 μl/mouse by gavage). Glucose levels were measured at 0, 15, and 30 min after Coca Cola administration.

In the case of Beta-glucosylceramide [GC], in the experiment on ConA mouse model (control 8807), the “AST (serum)” value stood at 2231. Moreover, the “ALT (serum)” value is given as 1875 in the experiment with ConA mouse model (control 8887) and 9290 in experiment [2]. Also, the Glucose with human subject (time 15 min) stood at 128 mg %; in the experiment with human subject (time 30 min), 135 mg %; in the experiment with human subject (time 45 min), 152 mg %; in the experiment with human subject (time 60 min), 132 mg %; with human subject (time 75 min) it was 124 mg %; in the experiment with human subject (time 90 min), 124 mg %. Moreover, the Glucose with human subject (time 105 min) is on record as 96 mg %; with human subject (time 120 min), 96 mg %; with human subject (overnight fast, time 0 min), 95 mg %. In addition, in experiment [1], the ALT levees is reported as 73. In the experiment with C57B1/6 mice [3], the “AUC at 30 minutes, effect compared to controls (FIG. 5B)” value was “significant”. In addition, the “AUC 30 minutes (blood sugar levels)” value in the experiment with C57B1/6 mice [4] was determined as 4381.25 ± 320.
